Assay results reported in PMC10820527, “Synthesis, Characterization, and Investigation of Anti-Inflammatory and Cytotoxic Activities of Novel Thiourea Derivatives of Naproxen” (Pharmaceutics, 2023).

Legend:
Format in all cases: cell-based, human
proapoptotic protein Bax = assay: Assessment of apoptosis: active Bax expression (flow cytometry); conditions: HeLa cells, 24 h, IC50 concentration, p > 0.05
Experimental: (§1) The aim of this study was to determine the expression of proteins that play a key role in apoptosis. The level of expression of the proapoptotic protein Bax, antiapoptotic protein Bcl-2, and the percentage of cells containing active caspase-3 was evaluated. […] Additionally, HeLa cells were fixed, permeabilized, and rinsed with ice-cold PBS (Fixation and Permeabilization Kit, eBioscience, San Diego, CA, USA). The cells were treated for 15 min at room temperature with a 1:1000 Bcl-2 fluorescein isothiocyanate (FITC) primary antibody (mhbcl01, Life Technologies, Carlsbad, CA, USA) to stain them. For further labeling, permeabilized HeLa cells were incubated with primary antibodies for active-Bax (N20, sc-493; Santa Cruz Biotech Inc., Dallas, TX, USA) and cleaved caspase-3 (#9661, Cell signaling Technology, Danvers, MA, USA) at a ratio of 1:1000 for 30 min. […] With the FC500 (Beckman Coulter), fluorescence of at least 15,000 events/samples had been measured. Negative control antibodies that matched the isotype were used to normalize the fluorescence intensity. The degree of expression of these proteins was indicated by the mean fluorescence intensities for Bax and Bcl-2 (MFIs), which were computed as the ratio of raw mean channel fluorescence to isotype control levels, respectively. […]

[1] = system: antiapoptotic protein Bcl-2; assay: Assessment of apoptosis: Bcl-2 expression (flow cytometry); conditions: HeLa cells, 24 h, IC50 concentration, p > 0.05
Experimental: as §1

HeLa cells [2] = assay: Annexin V/PI flow cytometry (type of cell death)
Experimental: (§2) The type of cell death induced by compounds 3 and 8 was determined by the annexin V–fluorescein isothiocyanate (FITC)/propidium iodide (PI) Apoptosis Kit (BD Biosciences, Franklin Lakes, NJ, USA). […] Furthermore, tested HeLa cells were trypsinized, washed in PBS, centrifuged, and resuspended in 100 μL of ice-cold binding buffer. The tested cells were then stained with both 10 μL of Annexin V-FITC and 20 μL of […], incubated for 15 min in the dark at room temperature, and 400 μL of binding buffer was added to each tube. The obtained samples were measured with a flow cytometer Cytomics FC500 (Beckman Coulter, Brea, CA, USA). In addition, the obtained data were analyzed using FlowJo V10 Software. Measurements were presented as the representative density plots of Annexin V-FITC and PI staining and the average values of three independent experiments.

[3] = Annexin V/PI flow cytometry (type of cell death); conditions: human; HeLa cells, 24 h, IC50 concentration; representative plot; read-out: viable cells (Q4, lower left quadrant)
Experimental: as §2

active caspase-3 = assay: Assessment of apoptosis: cells containing active caspase-3 (flow cytometry); conditions: HeLa cells, 24 h, IC50 concentration, p < 0.05
Experimental: as §1

HeLa cells [4] = assay: Cell cycle analysis (PI staining, flow cytometry); conditions: 24 h, IC50 concentration, p < 0.05
Experimental: The next step in this study was to evaluate whether the rate of division of HeLa tumor cells slows down under the influence of tested compounds. To examine the potential effect of compounds 3 and 8 on the cell cycle of HeLa cells, the cell line was incubated and treated with previously calculated IC50 values. The control population of untreated cells was also harvested and washed in the above-mentioned manner. Furthermore, HeLa cells were harvested, washed with PBS, and fixed with 70% ethanol at +4 °C. Cells were agglomerated and finally resuspended in 1 mL PBS containing RNAse A (500 μg/mL). After 30 min of incubation, cells were stained with 5 μL PI (10 mg/mL PBS). After 15 min of incubation in the dark, the samples were examined using a Beckman Coulter FC500 flow cytometer.

With COc1ccc2cc([C@H](C)C(=O)NC(=S)Nc3ccccc3)ccc2c1 [Compound 8, (S)-2-(6-methoxynaphthalen-2-yl)-N-(phenylcarbamothioyl)propanamide] the “Amount of proapoptotic Bax (in words)” value (proapoptotic protein Bax) was “insignificantly changed”, the “Amount of the antiapoptotic protein Bcl-2 (in words)” value [1] was “insignificantly changed” and the “Type of HeLa cell death induced (in words)” value (HeLa cells [2]; 24 h of treatment, p < 0.05) was “induced apoptosis”. The “late apoptotic cells (Q2, upper right quadrant)” value (HeLa cells [2]; HeLa cells, 24 h, IC50 concentration, Annexin V-FITC/PI) was 1–3%, the viability at 24 h [3] was 49.2% and the “Percentage of cells containing active caspase-3 (in words)” value (active caspase-3) was “increased compared to the untreated cells”. The “Effect on cell cycle of HeLa cells (in words)” value (HeLa cells [4]) was “induced G0/G1 phase arrest”.
